From BindingDB's records for doi:10.1016/j.bmcl.2015.03.038 (Bristol Myers Squibb, 2015)

Legend:
[1] = molecular target: Neurogenic locus notch homolog protein 1 (Homo sapiens, UniProt P46531); assay: Inhibition of Notch1 intracellular domain fragment transfected in human HeLa cells co-transfected with CBF1-PGL3 luciferase reporter vector by transactivation assay
[2] = molecular target: Neurogenic locus notch homolog protein 3 (Human, UniProt Q9UM47); assay: Inhibition of Notch3 intracellular domain fragment transfected in human HeLa cells co-transfected with CBF1-PGL3 luciferase reporter vector by transactivation assay
[3] = molecular target: Neurogenic locus notch homolog protein 2 (Homo sapiens, UniProt Q04721); assay: Inhibition of Notch2 intracellular domain fragment transfected in human HeLa cells co-transfected with CBF1-PGL3 luciferase reporter vector by transactivation assay
[4] = molecular target: Neurogenic locus notch homolog protein 4 (Homo sapiens, UniProt Q99466); assay: Inhibition of Notch4 intracellular domain fragment transfected in human HeLa cells co-transfected with CBF1-PGL3 luciferase reporter vector by transactivation assay

Neurogenic locus notch homolog protein 1, sequence (P46531 whole entry, the tested form may be a part): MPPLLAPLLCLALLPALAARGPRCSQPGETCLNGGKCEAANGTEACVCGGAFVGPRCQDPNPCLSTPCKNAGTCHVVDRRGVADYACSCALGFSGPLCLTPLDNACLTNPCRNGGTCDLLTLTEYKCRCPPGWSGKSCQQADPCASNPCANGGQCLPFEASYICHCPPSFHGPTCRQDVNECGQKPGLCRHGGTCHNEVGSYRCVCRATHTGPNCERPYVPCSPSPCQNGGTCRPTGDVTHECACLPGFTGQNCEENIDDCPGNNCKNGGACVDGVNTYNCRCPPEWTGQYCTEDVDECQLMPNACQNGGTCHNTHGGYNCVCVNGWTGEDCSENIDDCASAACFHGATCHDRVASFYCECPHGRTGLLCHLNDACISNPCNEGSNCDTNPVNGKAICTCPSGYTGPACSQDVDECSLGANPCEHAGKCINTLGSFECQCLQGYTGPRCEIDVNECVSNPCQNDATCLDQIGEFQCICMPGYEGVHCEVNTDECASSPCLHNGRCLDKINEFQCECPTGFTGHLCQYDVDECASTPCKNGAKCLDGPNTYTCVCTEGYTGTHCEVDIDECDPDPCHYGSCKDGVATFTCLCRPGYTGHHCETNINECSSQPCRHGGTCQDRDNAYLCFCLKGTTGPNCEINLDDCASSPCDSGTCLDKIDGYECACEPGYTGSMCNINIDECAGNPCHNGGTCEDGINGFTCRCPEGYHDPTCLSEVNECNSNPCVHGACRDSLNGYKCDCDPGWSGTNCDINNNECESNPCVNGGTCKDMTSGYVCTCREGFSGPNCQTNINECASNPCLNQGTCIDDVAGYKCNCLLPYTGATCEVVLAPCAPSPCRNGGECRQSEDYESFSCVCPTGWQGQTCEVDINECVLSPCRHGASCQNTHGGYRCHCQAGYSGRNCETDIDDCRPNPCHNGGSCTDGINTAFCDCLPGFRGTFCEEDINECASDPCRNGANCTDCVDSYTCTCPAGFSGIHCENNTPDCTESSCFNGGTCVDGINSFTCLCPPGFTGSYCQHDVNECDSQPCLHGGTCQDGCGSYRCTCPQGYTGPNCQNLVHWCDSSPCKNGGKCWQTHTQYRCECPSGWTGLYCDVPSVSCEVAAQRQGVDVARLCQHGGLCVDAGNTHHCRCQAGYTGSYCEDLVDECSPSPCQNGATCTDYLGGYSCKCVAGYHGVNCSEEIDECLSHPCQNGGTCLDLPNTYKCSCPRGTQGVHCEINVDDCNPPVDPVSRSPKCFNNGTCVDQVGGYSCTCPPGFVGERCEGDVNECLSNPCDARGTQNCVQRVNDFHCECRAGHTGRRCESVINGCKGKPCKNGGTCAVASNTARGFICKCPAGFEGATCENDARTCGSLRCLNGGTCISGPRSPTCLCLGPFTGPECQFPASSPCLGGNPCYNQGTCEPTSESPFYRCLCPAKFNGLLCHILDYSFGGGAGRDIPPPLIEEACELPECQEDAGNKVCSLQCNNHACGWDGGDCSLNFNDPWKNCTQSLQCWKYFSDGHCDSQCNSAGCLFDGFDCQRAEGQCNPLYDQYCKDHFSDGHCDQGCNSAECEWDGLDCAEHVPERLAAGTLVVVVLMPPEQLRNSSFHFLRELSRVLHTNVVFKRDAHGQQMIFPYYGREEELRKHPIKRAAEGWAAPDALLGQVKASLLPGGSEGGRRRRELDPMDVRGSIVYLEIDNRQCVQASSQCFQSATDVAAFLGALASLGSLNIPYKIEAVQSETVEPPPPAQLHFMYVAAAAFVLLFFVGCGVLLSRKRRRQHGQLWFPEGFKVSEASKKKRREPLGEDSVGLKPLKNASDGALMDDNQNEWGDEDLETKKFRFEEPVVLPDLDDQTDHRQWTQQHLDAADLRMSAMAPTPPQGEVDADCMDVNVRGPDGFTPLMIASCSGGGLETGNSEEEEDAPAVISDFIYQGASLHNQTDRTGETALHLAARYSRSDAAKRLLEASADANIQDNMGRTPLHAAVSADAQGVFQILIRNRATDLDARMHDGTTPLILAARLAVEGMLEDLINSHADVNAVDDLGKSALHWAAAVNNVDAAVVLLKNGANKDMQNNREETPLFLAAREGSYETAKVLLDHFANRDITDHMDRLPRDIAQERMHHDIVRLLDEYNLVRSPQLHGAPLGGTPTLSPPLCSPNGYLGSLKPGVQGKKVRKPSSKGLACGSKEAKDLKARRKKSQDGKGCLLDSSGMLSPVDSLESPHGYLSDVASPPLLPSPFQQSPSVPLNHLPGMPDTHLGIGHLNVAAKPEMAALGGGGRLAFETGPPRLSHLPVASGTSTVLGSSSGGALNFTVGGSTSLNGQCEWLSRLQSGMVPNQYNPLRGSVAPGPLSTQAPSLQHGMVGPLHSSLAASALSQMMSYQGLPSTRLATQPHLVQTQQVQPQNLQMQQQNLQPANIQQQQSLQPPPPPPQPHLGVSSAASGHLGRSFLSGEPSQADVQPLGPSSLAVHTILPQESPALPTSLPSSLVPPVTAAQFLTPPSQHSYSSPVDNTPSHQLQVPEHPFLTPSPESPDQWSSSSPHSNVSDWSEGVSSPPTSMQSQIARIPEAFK
Neurogenic locus notch homolog protein 3, sequence (Q9UM47 whole entry, the tested form may be a part): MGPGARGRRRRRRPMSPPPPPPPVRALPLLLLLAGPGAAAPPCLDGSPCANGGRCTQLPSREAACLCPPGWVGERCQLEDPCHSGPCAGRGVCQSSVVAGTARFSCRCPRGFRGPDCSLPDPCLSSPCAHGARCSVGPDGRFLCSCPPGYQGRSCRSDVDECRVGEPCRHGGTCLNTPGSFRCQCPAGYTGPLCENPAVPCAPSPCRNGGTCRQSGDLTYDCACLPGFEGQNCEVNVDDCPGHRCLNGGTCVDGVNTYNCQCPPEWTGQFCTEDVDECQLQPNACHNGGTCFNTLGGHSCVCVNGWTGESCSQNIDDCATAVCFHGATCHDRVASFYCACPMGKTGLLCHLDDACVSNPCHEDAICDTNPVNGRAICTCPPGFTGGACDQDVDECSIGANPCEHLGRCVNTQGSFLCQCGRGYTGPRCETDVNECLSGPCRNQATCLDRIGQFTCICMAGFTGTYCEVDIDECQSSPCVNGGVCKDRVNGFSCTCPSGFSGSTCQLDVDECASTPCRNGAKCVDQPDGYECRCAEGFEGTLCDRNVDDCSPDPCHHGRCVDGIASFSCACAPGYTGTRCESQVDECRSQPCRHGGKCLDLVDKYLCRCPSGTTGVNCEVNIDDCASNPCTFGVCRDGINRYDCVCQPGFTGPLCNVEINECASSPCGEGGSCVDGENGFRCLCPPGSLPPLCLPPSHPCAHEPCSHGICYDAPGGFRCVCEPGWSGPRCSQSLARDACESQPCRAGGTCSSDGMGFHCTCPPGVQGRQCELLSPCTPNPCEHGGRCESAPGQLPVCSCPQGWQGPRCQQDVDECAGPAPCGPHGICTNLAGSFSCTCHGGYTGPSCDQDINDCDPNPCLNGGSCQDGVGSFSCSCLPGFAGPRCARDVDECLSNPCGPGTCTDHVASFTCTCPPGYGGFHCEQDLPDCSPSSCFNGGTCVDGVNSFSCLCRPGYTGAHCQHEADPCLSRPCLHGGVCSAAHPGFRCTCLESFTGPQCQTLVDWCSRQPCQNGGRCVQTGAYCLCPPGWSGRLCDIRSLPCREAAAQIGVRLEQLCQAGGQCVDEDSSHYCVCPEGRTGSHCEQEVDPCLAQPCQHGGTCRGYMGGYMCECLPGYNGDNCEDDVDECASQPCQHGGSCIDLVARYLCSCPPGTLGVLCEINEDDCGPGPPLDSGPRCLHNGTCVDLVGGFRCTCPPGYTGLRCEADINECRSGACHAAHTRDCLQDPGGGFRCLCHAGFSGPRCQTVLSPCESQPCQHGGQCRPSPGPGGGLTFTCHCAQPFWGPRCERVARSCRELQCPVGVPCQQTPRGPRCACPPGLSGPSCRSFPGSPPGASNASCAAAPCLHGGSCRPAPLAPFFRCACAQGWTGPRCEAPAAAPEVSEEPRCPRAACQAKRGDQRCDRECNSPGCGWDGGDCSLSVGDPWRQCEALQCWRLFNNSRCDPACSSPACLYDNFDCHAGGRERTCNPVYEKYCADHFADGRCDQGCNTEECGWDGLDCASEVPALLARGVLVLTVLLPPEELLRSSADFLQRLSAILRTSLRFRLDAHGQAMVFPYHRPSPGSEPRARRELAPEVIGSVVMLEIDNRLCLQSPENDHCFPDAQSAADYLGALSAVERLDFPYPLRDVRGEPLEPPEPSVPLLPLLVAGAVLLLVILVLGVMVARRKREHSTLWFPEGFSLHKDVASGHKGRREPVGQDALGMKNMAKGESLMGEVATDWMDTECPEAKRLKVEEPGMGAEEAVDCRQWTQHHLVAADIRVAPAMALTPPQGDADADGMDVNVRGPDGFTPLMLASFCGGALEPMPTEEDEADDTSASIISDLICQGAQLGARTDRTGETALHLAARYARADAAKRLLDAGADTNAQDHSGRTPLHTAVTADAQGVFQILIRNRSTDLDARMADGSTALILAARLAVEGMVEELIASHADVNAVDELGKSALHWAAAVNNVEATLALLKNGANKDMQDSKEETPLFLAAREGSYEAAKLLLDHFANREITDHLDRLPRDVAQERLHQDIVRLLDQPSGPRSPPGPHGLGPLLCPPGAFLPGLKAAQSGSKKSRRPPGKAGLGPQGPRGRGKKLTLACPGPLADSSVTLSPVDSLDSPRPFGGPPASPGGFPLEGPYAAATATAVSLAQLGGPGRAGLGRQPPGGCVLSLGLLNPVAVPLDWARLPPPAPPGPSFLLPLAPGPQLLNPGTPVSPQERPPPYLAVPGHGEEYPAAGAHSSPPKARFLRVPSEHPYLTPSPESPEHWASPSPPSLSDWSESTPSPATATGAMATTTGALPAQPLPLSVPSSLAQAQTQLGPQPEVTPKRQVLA

Structure (SMILES)	IC50 [1]	IC50 [2]	IC50 [3]	IC50 [4]
Cc1cccc([C@H](C(N)=O)[C@@H](CCC(F)(F)F)C(=O)N[C@H]2N=C(c3ccccc3)c3ccccc3N(C)C2=O)c1	3 nM	1 nM	–	–
CN1C(=O)[C@@H](NC(=O)[C@H](CCC(F)(F)F)[C@@H](C(N)=O)c2ccccc2)N=C(c2ccccc2)c2ccccc21	–	–	1 nM	3 nM
Cc1nocc1[C@H](C(N)=O)[C@@H](CCC(F)(F)F)C(=O)N[C@H]1N=C(c2ccccc2)c2ccccc2N(C)C1=O	3 nM	3 nM	–	–
Cc1cc([C@H](C(N)=O)[C@@H](CCC(F)(F)F)C(=O)N[C@H]2N=C(c3ccccc3)c3ccccc3N(C)C2=O)no1	54 nM	62 nM	–	–
Cc1nc([C@H](C(N)=O)[C@@H](CCC(F)(F)F)C(=O)N[C@H]2N=C(c3ccccc3)c3ccccc3N(C)C2=O)no1	169 nM	119 nM	–	–
NC(=O)[C@@H](c1cnoc1)[C@@H](CCC(F)(F)F)C(=O)N[C@H]1N=C(c2ccccc2)c2ccccc2NC1=O	32 nM	29 nM	–	–
NC(=O)[C@@H](c1cocn1)[C@@H](CCC(F)(F)F)C(=O)N[C@H]1N=C(c2ccccc2)c2ccccc2NC1=O	231 nM	161 nM	–	–
NC(=O)[C@@H](c1ncon1)[C@@H](CCC(F)(F)F)C(=O)N[C@H]1N=C(c2ccccc2)c2ccccc2NC1=O	1190 nM	656 nM	–	–
CCC[C@H](C(N)=O)[C@@H](CC(F)(F)F)C(=O)N[C@H]1N=C(c2ccccc2)c2ccccc2N(C)C1=O	13 nM	24 nM	–	–
CCC(CC)[C@H](C(N)=O)[C@@H](CCC(F)(F)F)C(=O)N[C@H]1N=C(c2ccccc2)c2ccccc2N(C)C1=O	1 nM	1 nM	–	–
CCC(CC)[C@H](C(N)=O)[C@@H](CC(C)(C)C)C(=O)N[C@H]1N=C(c2ccccc2)c2ccccc2N(C)C1=O	3 nM	3 nM	–	–
CCC(CC)[C@H](C(N)=O)[C@@H](CC(C)C)C(=O)N[C@H]1N=C(c2ccccc2)c2ccccc2N(C)C1=O	2 nM	–	–	–
CN1C(=O)[C@@H](NC(=O)[C@H](CCC(F)(F)F)[C@@H](C(N)=O)c2cc(F)cc(F)c2)N=C(c2ccccc2)c2ccccc21	2 nM	2 nM	–	–
CN1C(=O)[C@@H](NC(=O)[C@H](CCC(F)(F)F)[C@@H](C(N)=O)c2ccc(F)cc2F)N=C(c2ccccc2)c2ccccc21	1 nM	1 nM	–	–
CN1C(=O)[C@@H](NC(=O)[C@H](CCC(F)(F)F)[C@@H](C(N)=O)c2ccc(F)c(F)c2)N=C(c2ccccc2)c2ccccc21	2 nM	2 nM	–	–
CN1C(=O)[C@@H](NC(=O)[C@H](CCC(F)(F)F)[C@@H](C(N)=O)c2ccc(F)cc2)N=C(c2ccccc2)c2ccccc21	2 nM	1 nM	–	–
COc1ccc([C@H](C(N)=O)[C@@H](CCC(F)(F)F)C(=O)N[C@H]2N=C(c3ccccc3)c3ccccc3N(C)C2=O)cc1	9 nM	6 nM	–	–
CN1C(=O)[C@@H](NC(=O)[C@H](CCC(F)(F)F)[C@@H](C(N)=O)c2cccc(S(C)(=O)=O)c2)N=C(c2ccccc2)c2ccccc21	2060 nM	2240 nM	–	–
CN1C(=O)[C@@H](NC(=O)[C@H](CCC(F)(F)F)[C@@H](C(N)=O)c2cccc(OC(F)(F)F)c2)N=C(c2ccccc2)c2ccccc21	3 nM	4 nM	–	–
CN1C(=O)[C@@H](NC(=O)[C@H](CCC(F)(F)F)[C@@H](C(N)=O)c2cccc(C(F)(F)F)c2)N=C(c2ccccc2)c2ccccc21	1 nM	2 nM	–	–
